{"source": "patent US10729668B2", "about": "“Ketobutyrate compounds and compositions for treating age-related symptoms and diseases” (The Regents of the University of California, priority 2014, dated 2020)", "key": {"[1]": {"biological_target": "T1, Complex II (Mus musculus, UniProt Q8K2B3+Q9CQA3+Q9CXV1+Q9CZB0)", "T1 construct": "Mitochondria were isolated from mouse liver as described earlier; from tissue; host or cells: liver mitochondria of 3-month-old C57BL/6 mice", "T1 sequence (Q8K2B3 43-664)": "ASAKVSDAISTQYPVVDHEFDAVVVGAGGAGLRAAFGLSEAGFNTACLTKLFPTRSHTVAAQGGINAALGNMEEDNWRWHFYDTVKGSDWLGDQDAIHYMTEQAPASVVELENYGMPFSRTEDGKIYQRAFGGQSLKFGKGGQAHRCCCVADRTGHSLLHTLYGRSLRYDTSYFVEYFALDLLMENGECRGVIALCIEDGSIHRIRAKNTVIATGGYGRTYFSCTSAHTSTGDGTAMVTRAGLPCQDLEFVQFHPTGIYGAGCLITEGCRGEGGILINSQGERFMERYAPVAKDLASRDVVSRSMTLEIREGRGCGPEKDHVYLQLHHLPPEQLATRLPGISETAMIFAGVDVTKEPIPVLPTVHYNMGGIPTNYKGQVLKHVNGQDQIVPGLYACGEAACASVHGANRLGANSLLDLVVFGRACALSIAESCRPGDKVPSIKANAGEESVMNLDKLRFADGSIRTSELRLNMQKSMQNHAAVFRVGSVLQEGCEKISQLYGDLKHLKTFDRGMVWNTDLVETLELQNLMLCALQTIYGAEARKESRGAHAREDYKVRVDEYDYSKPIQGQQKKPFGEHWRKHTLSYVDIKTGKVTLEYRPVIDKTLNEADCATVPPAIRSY", "T1 sequence (Q9CQA3 31-282)": "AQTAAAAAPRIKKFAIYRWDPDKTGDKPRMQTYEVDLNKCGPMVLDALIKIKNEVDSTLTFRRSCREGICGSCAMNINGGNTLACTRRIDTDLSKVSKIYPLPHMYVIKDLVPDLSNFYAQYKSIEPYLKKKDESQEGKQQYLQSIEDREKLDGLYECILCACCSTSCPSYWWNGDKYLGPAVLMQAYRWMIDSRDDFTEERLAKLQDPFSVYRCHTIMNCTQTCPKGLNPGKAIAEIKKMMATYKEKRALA", "T1 sequence (Q9CZB0 30-169)": "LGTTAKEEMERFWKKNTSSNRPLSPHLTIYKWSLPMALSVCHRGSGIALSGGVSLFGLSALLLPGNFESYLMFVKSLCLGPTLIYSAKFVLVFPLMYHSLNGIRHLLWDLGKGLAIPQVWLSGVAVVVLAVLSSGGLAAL", "T1 sequence (Q9CXV1 57-159)": "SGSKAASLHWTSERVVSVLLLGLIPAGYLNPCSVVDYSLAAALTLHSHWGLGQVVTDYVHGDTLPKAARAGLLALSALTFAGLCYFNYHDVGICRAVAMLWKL", "assay": "Complex II driven coupling assay, isolated liver mitochondria (succinate and rotenone)", "format": "biochemical", "conditions": "succinate supplemented", "description": "Animal studies were performed under approved UCLA animal research protocols. Mitochondria from 3-month-old C57BL/6 mice were isolated. Briefly, livers were extracted, minced at 4° C. in MSHE+BSA (70 mM sucrose, 210 mM mannitol, 5 mM HEPES, 1 mM EGTA, and 0.5% fatty acid free BSA, pH 7.2), and rinsed several times to remove blood. All subsequent steps were performed on ice or at 4° C. The tissue was disrupted in 10 volumes of MSHE+BSA with a glass Dounce homogenizer (5-6 strokes) and the homogenate was centrifuged at 800×g for 10 minutes to remove tissue debris and nuclei. The supernatant was decanted through a cell strainer and centrifuged at 8,000×g for 10 minutes. The dark mitochondrial pellet was resuspended in MSHE+BSA and re-centrifuged at 8,000×g for 10 minutes. The final mitochondrial pellet was resuspended in 30 μl of MAS buffer (70 mM sucrose, 220 mM mannitol, 10 mM KH2PO4, 5 mM MgCl2, 2 mM HEPES, 1 mM EGTA, and 0.2% fatty acid free BSA, pH 7.2). Isolated mitochondrial respiration was measured by running coupling and electron flow assays as described. […]\nMitochondrial respiration was measured by running coupling and electron flow assays. […]"}, "[2]": {"test_system": "NADH dehydrogenase", "assay": "Electron flow assay, isolated liver mitochondria", "format": "biochemical, mouse", "description": "Animal studies were performed under approved UCLA animal research protocols. Mitochondria from 3-month-old C57BL/6 mice were isolated. Briefly, livers were extracted, minced at 4° C. in MSHE+BSA (70 mM sucrose, 210 mM mannitol, 5 mM HEPES, 1 mM EGTA, and 0.5% fatty acid free BSA, pH 7.2), and rinsed several times to remove blood. All subsequent steps were performed on ice or at 4° C. The tissue was disrupted in 10 volumes of MSHE+BSA with a glass Dounce homogenizer (5-6 strokes) and the homogenate was centrifuged at 800×g for 10 minutes to remove tissue debris and nuclei. The supernatant was decanted through a cell strainer and centrifuged at 8,000×g for 10 minutes. […] Isolated mitochondrial respiration was measured by running coupling and electron flow assays as described. […] After basal readings, the sequential injections were as follows: 2 μM rotenone (Complex I inhibitor), 10 mM succinate (Complex II substrate), 4 μM antimycin A (Complex III inhibitor), and 10 mM/100 μM ascorbate/tetramethylphenylenediamine (Complex IV substrate). […]"}, "[3]": {"test_system": "nuo-6(qm200), daf-2(e1370), eat-2(ad1116) mutant C. elegans strains", "assay": "Lifespan of long-lived mutant C. elegans strains", "format": "in vivo, Caenorhabditis elegans", "source_text": "The nuo-6 gene encodes the C. elegans ortholog of the NDUFB4/B15 subunit of the mitochondrial electron transport chain complex I, also known as the NADH dehydrogenase complex."}}}
{"smiles": "CCC(=O)C(=O)O", "note": "[α-KB, α-ketobutyrate]", "values": [{"measurement": "mitochondrial respiration, Complex II-driven coupling", "setting": "[1]", "value": "no effect"}, {"measurement": "respiration in electron flow assay", "setting": "[2]", "value": "only NADH dehydrogenase related respiration is inhibited"}, {"measurement": "lifespan of daf-2(e1370) strain", "setting": "[3]; daf-2(e1370)", "value": "does extend the lifespan"}, {"measurement": "lifespan of eat-2(ad1116) strain", "setting": "[3]; eat-2(ad1116)", "value": "does extend the lifespan"}, {"measurement": "lifespan of nuo-6(qm200) strain", "setting": "[3]; nuo-6(qm200)", "value": "inability of α-KB to extend the lifespan"}]}
